These are literature values, as cited in patent US20070027217A1, “Composition and Method for Preventing Secondary Burn Ischemia” (priority 2005, published 2007).

“Also recorded” adds a separate entry of the source.

For data set [1], the system named is rat comb burn.
The subject of data set [2] is burned hamster model. The conditions noted are these: intravenous infusion.
Data set [3] concerns 38% full thickness burn. The settings on record: burn victim taking ibuprofen for arthritis.
Data set [4] deals with burns. The conditions noted are these: in vivo.

Consider `CC(C)Cc1ccc(C(C)C(=O)O)cc1` (centres unmarked) [ibuprofen], for which, in data set [1] (injected immediately after burn trauma), the “start of restoration of blood flow within interspaces” value is 16 h. In addition, the “vascular occlusion / blood flow within the interspaces” value in data set [1] (systemic application or injection) is “preserves blood flow; also recorded: restores vessel patency and blood flow”. Besides, the “vasodilation response to burn injury” value in data set [2] is “reduction in the vasodilation response”. Also, the “hypermetabolic response during recovery” value in data set [3] was “failed to show the expected hypermetabolic response”.

Regarding `COc1ccc2c(c1)c(CC(=O)O)c(C)n2C(=O)c1ccc(Cl)cc1` [indomethacin], the “vascular occlusion and loss of blood flow in burns” value in data set [4] was “does not prevent vascular occlusion and loss of blood flow”.
